Laboratory results from ChEMBL document CHEMBL4732190, “Identification of Potent and Long-Acting Single-Chain Peptide Mimetics of Human Relaxin-2 for Cardiovascular Diseases” (J Med Chem, 2021).
Values after ≈ are worked out from the molar mass of the structure shown. *1 amine or outer side, *2 acyl side, *3 side chain or, on linkers, in order; H or OH if unused. Where a SMILES comes first, the peptide text is derived from it. [ ]: non-standard residue; d: D form. The star is where a group is joined. PEG11 = NCCOCCOCCOCCOCCOCCOCCOCCOCCOCCOCCOCCC(=O)O; X1 = CCCCCCCCCCCCCCCCC(=O)[C@H](CCC(N)=O)N*; β2hAla(2S) = C[C@@H](CN[*:1])C(=O)[*:2]; Nle = CCCC[C@H](N)C(=O)O

What was measured:
[1] = Half life in Sprague-Dawley rat at 1 mg/kg, iv measured upto 72 hrs by LC-HRMS analysis; format: ADME, organism-based; conditions: in vivo
Relaxin receptor 1 [2] = molecular target: T1, Relaxin receptor 1 (Homo sapiens, UniProt Q9HBX9); assay: Agonist activity at RXFP1 endogenously expressed in human OVCAR-5 cells assessed as increase in IBMX-induced cAMP accumulation pretreated with IBMX for 40 mins followed by compound addition and measured after 30 mins by HTRF assay; format: functional, cell-based
T1 sequence (Q9HBX9 whole entry): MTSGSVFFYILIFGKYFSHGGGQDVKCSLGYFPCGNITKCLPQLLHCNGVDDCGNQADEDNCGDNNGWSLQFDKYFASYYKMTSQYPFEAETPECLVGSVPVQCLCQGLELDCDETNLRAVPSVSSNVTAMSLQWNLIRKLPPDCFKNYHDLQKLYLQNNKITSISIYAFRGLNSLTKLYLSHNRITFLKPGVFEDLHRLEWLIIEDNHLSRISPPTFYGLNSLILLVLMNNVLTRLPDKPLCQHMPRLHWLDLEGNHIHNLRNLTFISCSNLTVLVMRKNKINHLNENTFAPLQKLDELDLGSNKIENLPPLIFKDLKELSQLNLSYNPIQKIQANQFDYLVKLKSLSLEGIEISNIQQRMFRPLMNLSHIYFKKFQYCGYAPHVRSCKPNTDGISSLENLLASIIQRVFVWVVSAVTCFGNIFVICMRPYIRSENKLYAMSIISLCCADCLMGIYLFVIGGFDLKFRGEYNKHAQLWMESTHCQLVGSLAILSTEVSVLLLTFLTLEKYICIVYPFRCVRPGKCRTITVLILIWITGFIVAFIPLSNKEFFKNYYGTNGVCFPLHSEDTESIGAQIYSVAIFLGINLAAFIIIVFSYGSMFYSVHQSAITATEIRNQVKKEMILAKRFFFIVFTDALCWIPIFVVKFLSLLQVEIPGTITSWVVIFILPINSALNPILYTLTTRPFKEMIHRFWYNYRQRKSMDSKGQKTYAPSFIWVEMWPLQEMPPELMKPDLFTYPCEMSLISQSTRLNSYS

Relaxin receptor 1 [3] = molecular target: T1, Relaxin receptor 1; assay: Displacement of Eu3+-labelled H2 relaxin from human RXFP1 expressed in human HEK-293T cells in presence of 10 % FCS by competition binding assay; format: cell-based
[4] = molecular target: T2, Relaxin receptor 1 (Rattus norvegicus) (UniProt Q6R6I6); assay: Agonist activity at rat RXFP1 expressed in human […] cells assessed as increase in IBMX-induced cAMP accumulation pretreated with IBMX for 40 mins followed by compound addition and measured after 30 mins by HTRF assay relative to control; format: cell-based; conditions: HEK293, filed as agonist
T2 sequence (whole entry): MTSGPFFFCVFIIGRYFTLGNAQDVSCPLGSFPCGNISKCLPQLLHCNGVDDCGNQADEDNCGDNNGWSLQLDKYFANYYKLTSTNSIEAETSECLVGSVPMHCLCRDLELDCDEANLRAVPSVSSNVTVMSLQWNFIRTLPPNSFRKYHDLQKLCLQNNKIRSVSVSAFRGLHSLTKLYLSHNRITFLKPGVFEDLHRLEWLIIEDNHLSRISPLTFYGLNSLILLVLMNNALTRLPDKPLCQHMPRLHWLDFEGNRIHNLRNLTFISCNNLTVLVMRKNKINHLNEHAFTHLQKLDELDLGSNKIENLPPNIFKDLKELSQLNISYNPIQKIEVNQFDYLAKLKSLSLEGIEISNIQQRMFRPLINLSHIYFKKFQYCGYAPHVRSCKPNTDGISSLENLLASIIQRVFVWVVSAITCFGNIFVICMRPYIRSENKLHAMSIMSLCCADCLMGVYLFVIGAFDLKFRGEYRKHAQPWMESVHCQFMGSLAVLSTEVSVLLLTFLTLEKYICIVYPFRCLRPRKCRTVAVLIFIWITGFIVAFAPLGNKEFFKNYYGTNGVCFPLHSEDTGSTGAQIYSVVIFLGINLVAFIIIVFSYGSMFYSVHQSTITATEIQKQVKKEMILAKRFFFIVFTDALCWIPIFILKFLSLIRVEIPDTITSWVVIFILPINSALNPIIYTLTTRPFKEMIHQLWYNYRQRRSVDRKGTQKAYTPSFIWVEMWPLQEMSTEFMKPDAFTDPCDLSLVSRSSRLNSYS

[5] = Positive chronotropic activity in pithed Sprague-Dawley rat assessed as increase in heart rate at 10 microg/kg, iv administered as bolus dose recorded over 60 mins relative to control; format: ADME, organism-based; conditions: in vivo, 0.01 mg/kg, 1 h, dose 10 µg/kg
[6] = molecular target: T3, Relaxin receptor 1 (Homo sapiens) (UniProt Q9HBX9); assay: Agonist activity at RXFP1 endogenously expressed in human OVCAR-5 cells assessed as increase in IBMX-induced cAMP accumulation pretreated with IBMX for 40 mins followed by compound addition and measured after 30 mins by HTRF assay relative to relaxin; format: functional, cell-based; conditions: filed as agonist
T3 sequence (whole entry): T1 sequence (Q9HBX9 whole entry)

Relaxin receptor 1 [7] = molecular target: T4, Relaxin receptor 1 (Rattus norvegicus, UniProt Q6R6I6); assay: Agonist activity at rat RXFP1 expressed in human […] cells assessed as increase in IBMX-induced cAMP accumulation pretreated with IBMX for 40 mins followed by compound addition and measured after 30 mins by HTRF assay; format: cell-based, HEK293
T4 sequence (Q6R6I6 whole entry): T2 sequence (whole entry)

Relaxin receptor 1 [8] = molecular target: T1, Relaxin receptor 1; assay: Agonist activity at human RXFP1 expressed in human HEK-293T cells co-transfected with pCRE beta-galactosidase reporter plasmid assessed as […] of IBMX-induced cAMP accumulation incubated for 30 mins by HTRF assay; format: functional, cell-based
[9] = Positive chronotropic activity in pithed Sprague-Dawley rat assessed as increase in heart rate at 20 to 1000 mg/kg, iv administered as bolus dose measured after 60 mins post dose; format: ADME, organism-based; conditions: in vivo, 1 h, dose 20-1000 mg/kg
[10] = molecular target: T3, Relaxin receptor 1 (Homo sapiens); assay: Selectivity ratio of EC50 for agonist activity at RXFP1 endogenously expressed in human OVCAR-5 cells in presence of 2 % HSA to EC50 for agonist activity at RXFP1 endogenously expressed in human OVCAR-5 cells in absence of HSA; format: cell-based
[11] = molecular target: T2, Relaxin receptor 1 (Rattus norvegicus); assay: Selectivity index, ratio of EC50 for agonist activity at rat RXFP1 expressed in human […] cells in presence of RSA by HTRF assay to EC50 for EC50 for agonist activity at rat RXFP1 expressed in human […] cells in absence of RSA by HTRF assay; format: cell-based; conditions: HEK293, time 30.0 min
Relaxin receptor 1 [12] = molecular target: T1, Relaxin receptor 1; assay: Agonist activity at RXFP1 endogenously expressed in human OVCAR-5 cells assessed as increase in IBMX-induced cAMP accumulation pretreated with IBMX for 40 mins followed by compound addition and measured after 30 mins in presence of 2 % HSA by HTRF assay; format: functional, cell-based
[13] = Positive chronotropic activity in pithed Sprague-Dawley rat assessed as increase in heart rate at 1000 mg/kg, iv administered as bolus dose measured after 60 mins post dose; format: ADME, organism-based; conditions: in vivo, 1 h
[14] = molecular target: T3, Relaxin receptor 1 (Homo sapiens); assay: Agonist activity at RXFP1 endogenously expressed in human OVCAR-5 cells assessed as increase in IBMX-induced cAMP accumulation pretreated with IBMX for 40 mins followed by compound addition and measured after 30 mins in presence of 2 % HSA by HTRF assay relative to control; format: functional, cell-based; conditions: filed as agonist
[15] = Positive chronotropic activity in pithed Sprague-Dawley rat assessed as increase in heart rate at 300 microg/kg, iv administered as bolus dose recorded over 60 mins relative to control; format: ADME, organism-based; conditions: in vivo, 0.3 mg/kg, 1 h, dose 300 µg/kg
[16] = Aqueous solubility of compound in phosphate buffer at pH 7.4 measured after 24 hrs by UPLC analysis; format: physicochemical
[17] = Stability in human plasma assessed as parent compound remaining level at 5 uM remaining after 4 hrs; format: ADME, cell-free; conditions: read-out: Stabilty
[18] = Stability in rat plasma assessed as parent compound remaining level at 5 uM remaining after 4 hrs; format: ADME, cell-free; conditions: read-out: Stabilty
[19] = Aqueous solubility of compound in acetate buffer at pH 4.5 measured after 24 hrs by UPLC analysis; format: physicochemical

Row | SMILES | half-life [1] [min] | EC50 (Relaxin receptor 1 [2]) [nM] | Ki (Relaxin receptor 1 [3]) [nM] | Emax [4] [%] | Activity [5] [%] | Emax [6] [%] | EC50 (Relaxin receptor 1 [7]) [nM] | EC50 (Relaxin receptor 1 [8]) [nM] | Activity [9] | Ratio EC50 [10] | Ratio EC50 [11] | EC50 (Relaxin receptor 1 [12]) [nM] | Emin [13] [%] | Emax [14] [%] | Activity [15] [%] | solubility at 24 h [16] [µg/mL] | remaining at 4 h, 5 µM [17] [%] | remaining at 4 h, 5 µM [18] [%] | solubility at 24 h [19] [µg/mL]
1 | CC[C@H](C)[C@@H]1NC(=O)[C@H](C)NC(=O)[C@H]([C@@H](C)CC)NC(=O)[C@H](CCC(N)=O)NC(=O)[C@H](C)NC(=O)[C@H](CCCNC(=N)N)NC(=O)[C@H](C(C)C)NC(=O)[C@H](CC(C)C)NC(=O)[C@H](CCC(=O)O)NC(=O)[C@H](CCCNC(=N)N)NC(=O)CNC(=O)[C@@H](NC(=O)[C@H](CC(C)C)NC(=O)[C@H](CCCCN)NC(=O)[C@@H](NC(=O)[C@@H](NC(=O)[C@H](CCC(=O)O)NC(=O)[C@H](CCC(=O)O)NC(=O)[C@H](CCSC)NC(=O)[C@H](Cc2c[nH]c3ccccc23)NC(=O)[C@H](CO)NC(=O)[C@@H](N)CC(=O)O)C(C)C)[C@@H](C)CC)CSSC[C@@H]2NC(=O)[C@@H](NC(=O)[C@H](CCCCN)NC(=O)[C@H](CC(N)=O)NC(=O)[C@H](C)NC(=O)[C@H](CC(C)C)NC(=O)[C@H](C)NC(=O)[C@H](CO)NC(=O)[C@H](Cc3ccc(O)cc3)NC(=O)[C@@H](N)CC(C)C)CSCCSC[C@H](NC(=O)CNC(=O)[C@H](C(C)C)NC(=O)[C@H](Cc3cnc[nH]3)NC2=O)C(=O)N[C@@H]([C@@H](C)O)C(=O)N[C@@H](CCCCN)C(=O)N[C@@H](CCCNC(=N)N)C(=O)N[C@@H](CO)C(=O)N[C@@H](CC(C)C)C(=O)N[C@@H](C)C(=O)N[C@@H](CCCNC(=N)N)C(=O)N[C@@H](Cc2ccccc2)C(=O)NC(C(=O)O)CSSC[C@@H](C(=O)NCC(=O)N[C@@H](CCSC)C(=O)N[C@@H](CO)C(=O)N[C@H](C(=O)N[C@@H](Cc2c[nH]c3ccccc23)C(=O)N[C@@H](CO)C(=O)O)[C@@H](C)O)NC1=O (stereo not given in full) | 27.6 | 0.42 | 1.1 | 100 | 60 | 100 | 0.5 | 0.0324 | – | – | – | – | – | – | – | – | – | – | –
2 | CCCCCCCCCCCCCCCCC(=O)[C@H](CCC(N)=O)NC(=O)[C@H](CCC(=O)O)NC(=O)[C@H](CCC(=O)O)NC(=O)[C@H](CCCCN)NC(=O)CCOCCOCCOCCOCCOCCOCCOCCOCCOCCOCCOCCNC(=O)[C@H](CCCCN)NC(=O)[C@H](CCCNC(=N)N)NC(=O)[C@@H](C)CNC(=O)[C@H](CO)NC(=O)[C@H](Cc1c[nH]c2ccccc12)NC(=O)[C@@H](NC(=O)[C@H](CO)NC(=O)[C@H](CCSC)NC(=O)CNC(=O)[C@H](CCC(=O)O)NC(=O)[C@@H](C)CNC(=O)[C@@H](C)CNC(=O)[C@@H](NC(=O)[C@H](CCC(N)=O)NC(=O)[C@H](C)NC(=O)[C@H](CCCNC(=N)N)NC(=O)[C@@H](NC(=O)[C@H](CCCCN)NC(=O)[C@H](CCC(=O)O)NC(=O)[C@H](CCCNC(=N)N)NC(=O)[C@H](CCC(=O)O)NC(=O)CNC(=O)[C@H](CCC(=O)O)NC(=O)[C@H](CC(C)C)NC(C)=O)C(C)C)[C@@H](C)CC)[C@@H](C)O (Ac-LEGEREKVRAQI[β2hAla(2S)][β2hAla(2S)]EGMSTWS[β2hAla(2S)]RK[PEG11]KEE-X1) | 534 | 3.6 | – | 79 | – | 88 | 0.9 | – | Dose-dependent effect | 75 | 33 | 270 | 30 | 88 | – | – | – | – | –
3 | CCCC[C@H](NC(=O)CNC(=O)[C@H](CCC(=O)O)NC(=O)[C@@H](C)CNC(=O)[C@@H](C)CNC(=O)[C@@H](NC(=O)[C@H](CCC(N)=O)NC(=O)[C@H](C)NC(=O)[C@H](CCCNC(=N)N)NC(=O)[C@@H](NC(=O)[C@H](CCCCN)NC(=O)[C@H](CCC(=O)O)NC(=O)[C@H](CCCNC(=N)N)NC(=O)CNC(=O)[C@H](CCC(=O)O)NC(=O)[C@H](CC(C)C)NC(C)=O)C(C)C)[C@@H](C)CC)C(=O)N[C@@H](CO)C(=O)N[C@H](C(=O)N[C@@H](Cc1c[nH]c2ccccc12)C(=O)N[C@@H](CO)C(=O)NC[C@H](C)C(=O)N[C@@H](CCCNC(=N)N)C(=O)N[C@@H](CCCCN)C(=O)N[C@@H](CCCCN)C(N)=O)[C@@H](C)O (Ac-LEGREKVRAQI[β2hAla(2S)][β2hAla(2S)]EG[Nle]STWS[β2hAla(2S)]RKK-NH2) | 19.2 | 12 | – | 83 | – | 99 | 5.3 | – | – | – | – | – | 43 | – | 40 | 2900 (≈ 1050 µM) | 64 | 55 | 3300 (≈ 1190 µM)
